# According to PMC9866218, “Characterization and Chemical Synthesis of Cm39 (α-KTx 4.8): A Scorpion Toxin That Inhibits Voltage-Gated K^+ Channel KV1.2 and Small- and Intermediate-Conductance Ca^2+-Activated K^+ Channels KCa2.2 and KCa3.1” (Toxins, 2023):
# Entries after “also recorded” stand apart in the source; their conditions may differ.
# Experiments:
# hKV11.1 = test: Whole-cell patch-clamp, block of KV11.1 (hERG1) current; type: cell-based, human; conditions: HEK 293 cells
# From the text: We, therefore, aimed at testing the pharmacological activity of sCm39 on a battery of various potassium and sodium ion channels. Among the tested channels were six members of human voltage-gated K^+ (hKV) channels from Shaker family, hKV1.1-hKV1.6 (Figure 3A–F) and three members of Ca^2+-activated potassium channel; hKCa2.2 (SK2, Figure 3I), the small-conductance Ca^2+-activated channel; hKCa3.1 (IKCa1, SK4. Figure 3J), the intermediate-conductance Ca^2+-activated channel expressed in T lymphocytes; and mKCa1.1 (BK, Slo1, MaxiK, Figure 3H), the large-conductance voltage- and Ca^2+-activated channel of mice. In addition, we also screened the effect of Cm39 on hKV11.1 (hERG1, Figure 3G), a voltage-gated cardiac K^+ channel, and two human voltage-gated sodium (hNaV) channels, hNaV1.4 (Figure 3K) and hNaV1.5 (Figure 3L), expressed in skeletal and cardiac muscles, respectively. These ion channels were heterologously expressed in the CHO or HEK cell lines except for KV1.3. Human peripheral T lymphocytes. […]
# (§1) Whole-cell currents were recorded in voltage-clamped cells following standard protocols by using a Multiclamp 700B amplifier connected to a computer with Axon Digidata1440 digitizer and for data acquisition, Clampex 10.7 software was used (Molecular Devices). […]
# hKV1.2 = biological target: T1, hKV1.2 (Homo sapiens, UniProt P16389); test: Conductance-voltage (G-V) relationship of KV1.2; type: cell-based
# T1 construct: GFP (vector pCMV6-AC-GFP); host or cells: CHO cells, transient transfection
# Procedure: Mostly, scorpion toxins inhibit the KV channels by physically occluding the pore region of the channel thereby preventing the flow of K^+ ions. […] To confirm the blocking mechanism of Cm39 we determined the conductance–voltage (G–V) relationship for KV1.2 in the absence and presence of the toxin. Whole-cell currents of KV1.2 expressing CHO cells were recorded by applying the 300 ms long depolarization pulses ranging from −70 to +80 in 10 mV steps from Vh of −120 mV. […] The conductance values were calculated for each voltage step, normalized to the maximum conductance and plotted as a function of membrane potential (Em) as shown in Figure 4E. […] The midpoint voltage (V50) of the G–V relationship in the control solution (−1.0 ± 4.8, n = 4) was statistically similar to the V50 value at equilibrium block with 65 nM sCm39 (1.6 ± 4.0, n = 4) as shown in Figure 4F.
# Those plasmids which lack a fluorescent tag were co-transfected with a plasmid encoding GFP. Transfections were performed at a GFP:channel DNA molar ratio of 1:10 using the Lipofectamine 2000 kit (Invitrogen) according to the manufacturer’s protocol. GFP expressing cells were identified with the Nikon TE 2000U fluorescence microscope (Nikon, Tokyo, Japan) and used for current recordings (~60–70% success rate for co-transfection). Generally, currents were recorded 24 to 48 h post transfection.
# For the measurement of KV1.x, mKCa1.1 and NaV1.x currents the extracellular solution was composed of (in mM) 145 NaCl, 5 KCl, 2.5 CaCl2, 1 MgCl2, 10 HEPES and 5.5 glucose, pH 7.35. In the HK-150 and Na^+-free bath solution bath all Na^+ was substituted by K^+ or Choline-Cl, respectively, other ingredients remained unchanged. In the various TEA^+-containing solutions, Na^+ was substituted by tetraethylammonium-Cl in equimolar concentration (Figure 3). The bath solution for KCa2.2 and KCa3.1 consisted of (in mM) 145 L-Aspartic Na^+ salt, 5 KCl, 2.5 CaCl2, 1 MgCl2, 5.5 glucose and 10 HEPES, pH 7.4 and for KV11.1 (in mM) 140 Choline-Cl, 5 KCl, 2 MgCl2, 2 CaCl2, 10 HEPES, 20 glucose and 0.1 CdCl2, pH 7.35. The osmolarity of bath solutions was ranging between 302 to 308 mOsm/L. A total of 0.1 mg/mL bovine serum albumin (BSA, Sigma-Aldrich, Budapest, Hungary) was added to all the bath solutions before the patch-clamp assay to avoid toxin adsorption to the plastic surfaces of the perfusion system. Internal or pipette solution for recording KV1.x and mKCa1.1 currents consisted of (in mM) 140 KF, 2 MgCl2, 1 CaCl2, 11 EGTA and 10 HEPES, pH 7.22. […]
# as §1
# T1 sequence (P16389 whole entry): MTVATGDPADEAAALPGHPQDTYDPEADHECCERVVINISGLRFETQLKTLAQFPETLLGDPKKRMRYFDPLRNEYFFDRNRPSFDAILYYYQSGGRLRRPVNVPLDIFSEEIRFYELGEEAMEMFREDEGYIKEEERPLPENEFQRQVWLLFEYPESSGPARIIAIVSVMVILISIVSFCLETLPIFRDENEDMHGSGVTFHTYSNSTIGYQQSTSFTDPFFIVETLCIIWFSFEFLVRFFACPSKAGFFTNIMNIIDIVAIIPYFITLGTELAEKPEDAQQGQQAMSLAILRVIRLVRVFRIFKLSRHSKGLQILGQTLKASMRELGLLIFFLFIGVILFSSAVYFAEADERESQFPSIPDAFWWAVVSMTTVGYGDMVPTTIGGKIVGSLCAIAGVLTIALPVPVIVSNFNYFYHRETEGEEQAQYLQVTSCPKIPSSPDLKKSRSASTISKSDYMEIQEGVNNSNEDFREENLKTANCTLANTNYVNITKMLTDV
smiles,measurement,setting,value
CC[C@H](C)[C@@H]1NC(=O)[C@H](C)NC(=O)[C@H](C)NC(=O)[C@H](CCCCN)NC(=O)[C@@H]2CSSC[C@@H](C(=O)N[C@@H](Cc3ccc(O)cc3)C(=O)N[C@@H](Cc3ccc(O)cc3)C(=O)O)NC(=O)[C@H](CCCCN)NC(=O)[C@@H]3CSSC[C@H](NC(=O)[C@H](CCC(=O)O)NC(=O)[C@H](CO)NC(=O)[C@H](CO)NC(=O)[C@H](CO)NC(=O)[C@H](CCCCN)NC(=O)[C@@H](NC(=O)[C@H](CCCCN)NC(=O)[C@H](Cc4c[nH]cn4)NC(=O)[C@H](CC(N)=O)NC(=O)[C@@H](NC(=O)[C@H](Cc4ccccc4)NC(=O)[C@@H](N)[C@@H](C)O)[C@@H](C)CC)CSSC[C@H](NC(=O)[C@H](CCCCN)NC(=O)CNC(=O)[C@H](CO)NC(=O)[C@H](C)NC(=O)[C@H](CCCNC(=N)N)NC(=O)CNC1=O)C(=O)N[C@@H]([C@@H](C)CC)C(=O)N[C@@H](CC(N)=O)C(=O)N[C@@H](CO)C(=O)N[C@@H]([C@@H](C)O)C(=O)N3)C(=O)N[C@@H](CC(C)C)C(=O)N1CCC[C@H]1C(=O)N[C@@H](C)C(=O)N2 [Cm39],inhibition (in words),hKV11.1; 1 μM,does not inhibit; also recorded: did not show any effect
same,decrease in current,"hKV11.1; 1 µM, 3−5 min, n = 3−5",< 3%
same,effect on voltage dependence of steady-state activation (conductance–voltage relationship),"hKV1.2; 65 nM, CHO cells",not altered; also recorded: completely insensitive
same,effect on voltage dependence of steady-state activation (conductance–voltage relationship),"hKV1.2; 65 nM, CHO cells, listed as sCm9",did not affect the voltage dependence of steady-state activation
same,"Mann–Whitney p, V50 with vs without toxin","hKV1.2; 65 nM, ns = not significant",0.89
same,midpoint voltage V50 of the G–V relationship,"hKV1.2; equilibrium block with 65 nM sCm39, n = 4, control solution −1.0 ± 4.8, n = 4, CHO cells, ± SEM",1.6 ± 4.0
